Experimental data taken from PMC9777575, “Exploring the Promotive Effects and Mechanisms of Different Polyphenolic Extracts from Prinsepia utilis Royle Seed Shell on Tyrosinase” (Foods, 2022).

Assays:
tyrosinase = target: tyrosinase; design: method as in PMID 33782442; settings: read-out: EC50 of activation effect on tyrosinase; cited from earlier work
mushroom tyrosinase = test: Enzyme kinetic analysis (Lineweaver-Burk) of mushroom tyrosinase; format: biochemical; settings: sample used as substrate
Method: The enzyme kinetics was determined by referring to the previously reported method with appropriate modifications. […] As described in Section 2.5, a blank group, a blank control group and a sample control group were set up. The initial rate of dopachrome formation in the reaction mixture was determined as an increase in absorbance at a wavelength of 475 nm per minute by using a microplate reader. The Michaelis constant (Km) and maximal velocity (Vmax) of tyrosinase activity were determined by Lineweaver-Burk plots using different concentrations of (+)-catechin and (−)-epicatechin as substrates.

[1] = target: Tyrosinase (from mushroom, EC1.14.18.1); test: Mushroom tyrosinase activity assay (L-DOPA substrate, absorbance at 475 nm); format: biochemical; settings: effective concentration to promote relative enzyme activity at 150%, 37 °C, 30 min, read-out: EC50 of activation effect on tyrosinase
Method: The tyrosinase activity was determined by referring to the previously reported method with appropriate modifications. […] The reaction was carried out at 37 °C for 30 min and the absorbance values were recorded at 475 nm with a Spectra Max M5 microplate reader (Molecular Device, Sunnyvale, CA, USA). Blank group (system containing PBS, enzyme and L-DOPA solution), blank control group (system containing PBS and L-DOPA solution), and sample control group (system containing PBS, sample solution and L-DOPA solution) were also set up. The relative enzyme activity of each sample group was calculated using the following formula: Relative enzyme activity (%) = [(B1 − B2)/(A1 − A2)] × 100 where A1 = absorbance of the blank group, A2 = absorbance of the blank control group, B1 = absorbance of the sample group and B2 = absorbance of the sample control group. The effective concentration of each sample to promote relative enzyme activity at 150% was calculated as EC50 value.

Row | SMILES | EC50 (tyrosinase) [µM] | Km (mushroom tyrosinase; DOPA 1 mM) [µM] | Vm of tyrosinase activity (mushroom tyrosinase; DOPA 1 mM) | Km (mushroom tyrosinase; DOPA 1.5 mM) [µM] | Vm of tyrosinase activity (mushroom tyrosinase; DOPA 1.5 mM) | Km (mushroom tyrosinase; DOPA 2 mM) [µM] | Vm of tyrosinase activity (mushroom tyrosinase; DOPA 2 mM) | EC50 [1] [µM]
1 | O=C(CCc1ccc(O)c(O)c1)c1c(O)cc(O)c([C@@H]2O[C@H](CO)[C@@H](O)[C@H](O)[C@H]2O)c1O [Aspalathin] | 265 ± 4.56 |  |  |  |  |  |  | 
2 | Oc1cc(O)c2c(c1)OC(c1ccc(O)c(O)c1)C(O)C2 (single isomer, unassigned; (+)) [(+)-Catechin] |  | 62 | 200.00 | 74.3 | 175.44 | 87 | 158.73 | 32.5 ± 1.7
3 | Oc1cc(O)c2c(c1)O[C@H](c1ccc(O)c(O)c1)[C@H](O)C2 [(−)-Epicatechin] |  | 11.2 | 85.47 | 11.7 | 80.00 | 18 | 71.94 | 36.7 ± 0.43
